Assay results reported in ChEMBL document CHEMBL1201862, “PubChem BioAssay data set” (2004).
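Exposure lasted 48 hours, with cells grown in 96-well plates and compounds tested at five concentrations. GI50 is the concentration that inhibits growth by half.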 Activity calls are given as the source filed them. Cut-off read from the data, not from the text of the source: active = GI50 up to about 1.1 µM and inactive = higher.

How the values were obtained:
Assay in all cases: inhibition of tumour cell growth, NCI panel, 48 h
[1] = tested on: A549
[2] = tested on: BT-549
[3] = tested on: HCT-116
[4] = tested on: Hs-578T
[5] = tested on: KM12
[6] = tested on: M14
[7] = tested on: MDA-MB-435
[8] = tested on: NCI-H226
[9] = tested on: OVCAR-5
[10] = tested on: OVCAR-8
[11] = tested on: RPMI-8226
[12] = tested on: SK-MEL-28
[13] = tested on: SK-MEL-2
[14] = tested on: SK-MEL-5
[15] = tested on: SK-OV-3
[16] = tested on: SN12C
[17] = tested on: SNB-19
[18] = tested on: SW-620
[19] = tested on: TK-10
[20] = tested on: UO-31

Compound	GI50 [1]	GI50 [2]	GI50 [3]	GI50 [4]	GI50 [5]	GI50 [6]	GI50 [7]	GI50 [8]	GI50 [9]	GI50 [10]	GI50 [11]	GI50 [12]	GI50 [13]	GI50 [14]	GI50 [15]	GI50 [16]	GI50 [17]	GI50 [18]	GI50 [19]	GI50 [20]
CN(C(=O)c1ccncc1)c1ccccc1	> 100 µM (inactive)	> 100 µM (inactive)	> 100 µM (inactive)	> 100 µM (inactive)	> 100 µM (inactive)	> 100 µM (inactive)	> 100 µM (inactive)	> 100 µM (inactive)	> 100 µM (inactive)	> 100 µM (inactive)	> 100 µM (inactive)	> 100 µM (inactive)	> 100 µM (inactive)	> 100 µM (inactive)	> 100 µM (inactive)	> 100 µM (inactive)	> 100 µM (inactive)	> 100 µM (inactive)	> 100 µM (inactive)	> 100 µM (inactive)
CC(=O)C1(c2ccccc2)CCN(Cn2sc3nc(C)cc(C)c3c2=O)CC1	64.7 µM (inactive)	38.8 µM (inactive)	23.1 µM (inactive)	30.4 µM (inactive)	> 100 µM (inactive)	25.8 µM (inactive)	23.1 µM (inactive)	97.5 µM (inactive)	19.5 µM (inactive)	27.4 µM (inactive)	56.9 µM (inactive)	31.6 µM (inactive)	44 µM (inactive)	30.1 µM (inactive)	76.4 µM (inactive)	21.4 µM (inactive)	> 100 µM (inactive)	24.4 µM (inactive)	20.1 µM (inactive)	16.5 µM (inactive)
COc1ccc2[nH]c3c(c2c1)CCc1c(OC)cccc1-3	> 100 µM (inactive)	> 100 µM (inactive)	> 100 µM (inactive)	39.7 µM (inactive)	> 100 µM (inactive)	> 100 µM (inactive)	> 100 µM (inactive)	> 100 µM (inactive)	> 100 µM (inactive)	> 100 µM (inactive)	51.9 µM (inactive)	> 100 µM (inactive)	> 100 µM (inactive)	> 100 µM (inactive)	> 100 µM (inactive)	> 100 µM (inactive)	> 100 µM (inactive)	> 100 µM (inactive)	> 100 µM (inactive)	> 100 µM (inactive)
OCC1OC(O[C@H]2CN3[C@H](O)[C@@H](O)[C@H](O)[C@H]3C2O)C(O)C(O)C1O (stereo not given in full)	> 100 µM (inactive)	> 100 µM (inactive)	> 100 µM (inactive)	> 100 µM (inactive)	> 100 µM (inactive)	> 100 µM (inactive)	> 100 µM (inactive)	> 100 µM (inactive)	> 100 µM (inactive)	> 100 µM (inactive)	> 100 µM (inactive)	> 100 µM (inactive)	> 100 µM (inactive)	> 100 µM (inactive)	> 100 µM (inactive)	> 100 µM (inactive)	> 100 µM (inactive)	> 100 µM (inactive)	> 100 µM (inactive)	> 100 µM (inactive)
O=C1Nc2ccccc2/C1=C/c1c(Cl)[nH]c2ccc(O)cc12	4.54 µM (inactive)	4.84 µM (inactive)	0.719 µM (active)	3.99 µM (inactive)	1.37 µM (inactive)	1.36 µM (inactive)	0.214 µM (active)	1.08 µM (active)	4.04 µM (inactive)	2.93 µM (inactive)	3.43 µM (inactive)	7.05 µM (inactive)	1.55 µM (inactive)	1.21 µM (inactive)	1.71 µM (inactive)	0.641 µM (active)	3.21 µM (inactive)	1.18 µM (inactive)	10.7 µM (inactive)	3.9 µM (inactive)
O=C(O)CSc1nnc2c3ccccc3c3ccccc3c2n1	49.5 µM (inactive)	> 100 µM (inactive)	38.2 µM (inactive)	70.6 µM (inactive)	42 µM (inactive)	47.1 µM (inactive)	52 µM (inactive)	85.7 µM (inactive)	> 100 µM (inactive)	50.4 µM (inactive)	32.4 µM (inactive)	> 100 µM (inactive)	> 100 µM (inactive)	45.9 µM (inactive)	71 µM (inactive)	38.9 µM (inactive)	44.7 µM (inactive)	42.7 µM (inactive)	> 100 µM (inactive)	33.6 µM (inactive)
CNc1ncnc2c1cnn2COCC(O)CO (stereo not given)	> 100 µM (inactive)	> 100 µM (inactive)	> 100 µM (inactive)	> 100 µM (inactive)	> 100 µM (inactive)	> 100 µM (inactive)	> 100 µM (inactive)	> 100 µM (inactive)	> 100 µM (inactive)	> 100 µM (inactive)	> 100 µM (inactive)	> 100 µM (inactive)	> 100 µM (inactive)	> 100 µM (inactive)	> 100 µM (inactive)	> 100 µM (inactive)	> 100 µM (inactive)	> 100 µM (inactive)	> 100 µM (inactive)	> 100 µM (inactive)
CCOC(=O)NN(C(=O)OCC)C(C(=O)C1=CCCCC1)N(NC(=O)OCC)C(=O)OCC	> 100 µM (inactive)	> 100 µM (inactive)	> 100 µM (inactive)	> 100 µM (inactive)	> 100 µM (inactive)	> 100 µM (inactive)	> 100 µM (inactive)	> 100 µM (inactive)	> 100 µM (inactive)	> 100 µM (inactive)	> 100 µM (inactive)	> 100 µM (inactive)	> 100 µM (inactive)	> 100 µM (inactive)	> 100 µM (inactive)	> 100 µM (inactive)	> 100 µM (inactive)	> 100 µM (inactive)	> 100 µM (inactive)	> 100 µM (inactive)
FC(F)(F)c1nc2ccc(SSc3ccc4nc(C(F)(F)F)[nH]c4c3)cc2[nH]1	42.3 µM (inactive)	92.7 µM (inactive)	> 10 µM (inactive)	> 10 µM (inactive)	> 10 µM (inactive)	94.2 µM (inactive)	40.6 µM (inactive)	> 10 µM (inactive)	> 100 µM (inactive)	92.3 µM (inactive)	25.1 µM (inactive)	> 10 µM (inactive)	> 10 µM (inactive)	45.9 µM (inactive)	> 10 µM (inactive)	46.7 µM (inactive)	> 10 µM (inactive)	61.1 µM (inactive)	79.3 µM (inactive)	31.6 µM (inactive)
[N-]=[N+]=Nc1c(-c2ccccc2)c(Cl)nc2ccccc12	29.9 µM (inactive)	23.2 µM (inactive)	47.8 µM (inactive)	44.2 µM (inactive)	19.1 µM (inactive)	46 µM (inactive)	38.3 µM (inactive)	22.2 µM (inactive)	> 100 µM (inactive)	58.2 µM (inactive)	29.7 µM (inactive)	58.7 µM (inactive)	58.3 µM (inactive)	17.3 µM (inactive)	86.3 µM (inactive)	32.5 µM (inactive)	29.9 µM (inactive)	35.4 µM (inactive)	74.5 µM (inactive)	15.5 µM (inactive)
